Reference: patent US20160193364A1, “COMPOSITIONS AND METHODS FOR MODULATING MITOCHONDRIAL PYRUVATE CARRIER ACTIVITY” (University of Utah Research Foundation, priority 2012, published 2016)

Legend:
MPC1 = molecular target: T1, MPC1 (Saccharomyces cerevisiae, UniProt P38857+P53157); assay: 14C-pyruvate uptake into isolated yeast mitochondria expressing wild-type MPC1; format: biochemical; conditions: 0.2 mM UK-5099, 2 min preincubation, vs DMSO
T1 construct: expressed in transfected cells; host or cells: S. cerevisiae mpc1Δ strain carrying an MPC1 plasmid; isolated mitochondria
T1 sequence (P53157 1-130): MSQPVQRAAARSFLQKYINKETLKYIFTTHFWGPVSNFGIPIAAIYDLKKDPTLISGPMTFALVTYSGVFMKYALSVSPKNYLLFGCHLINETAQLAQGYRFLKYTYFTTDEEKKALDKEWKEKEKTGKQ
T1 sequence (P38857 1-129): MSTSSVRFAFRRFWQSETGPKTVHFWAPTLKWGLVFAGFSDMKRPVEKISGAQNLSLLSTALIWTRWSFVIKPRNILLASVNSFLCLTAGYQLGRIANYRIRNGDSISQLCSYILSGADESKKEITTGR
Procedure: (§1) Yeast mitochondria were isolated using a simplified version of the method described by Boldogh and Pon [Wittig et al., 2006]. Briefly, yeast were grown in synthetic 2% raffinose media to an A600˜3.0 and collected. The cells were pelleted, washed with sterile water, re-pelleted, and then frozen at −80° C. Mitochondrial isolation began by thawing the cells on ice, digesting the cell wall with lyticase (Sigma) for one hour to generate spheroplasts. Following 40 minutes in regeneration buffer, spheroplasts were lysed using a Dounce homogenizer. The mitochondria were further purified through several high and low speed centrifugation steps.
(§2) Mitochondria used for pyruvate uptake experiments were extracted from live cells, kept on ice and used within 5 hours of harvest without freezing. An estimate of mitochondrial concentration was calculated using A280. Samples were then diluted to yield equal mitochondrial mass and centrifuged at 10000 rpm for 10 minutes to pellet mitochondria. The supernatant was then removed and the mitochondrial pellet was resuspended in respiratory buffer (120 mM KCl, 5 mM KH2PO4, 1 mM EGTA, and 3 mM HEPES pH 7.4) and placed on ice.
(§3) To initiate pyruvate uptake, 50 μL of mitochondria was added to 100 μL of room temperature respiratory buffer at pH 6.8 in a microcentrifuge tube. […] Five biological replicates were analyzed per group. […]

MPC1-D118G = molecular target: T2, MPC1-D118G (Saccharomyces cerevisiae, UniProt P38857+P53157, D118G); assay: 14C-pyruvate uptake into isolated yeast mitochondria expressing MPC1-D118G; format: biochemical; conditions: 0.2 mM UK-5099, 2 min preincubation, vs DMSO
T2 construct: expressed in transfected cells; host or cells: S. cerevisiae mpc1Δ strain carrying an MPC1-D118G plasmid; isolated mitochondria
T2 sequence (P53157 whole entry D118G, one chain of several): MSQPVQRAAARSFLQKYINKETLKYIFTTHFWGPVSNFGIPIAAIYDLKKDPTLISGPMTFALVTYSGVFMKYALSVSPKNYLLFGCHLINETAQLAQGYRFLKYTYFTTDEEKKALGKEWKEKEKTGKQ
Procedure: as §1, §2, §3

mae1Δmpc1Δ double mutant = assay: Growth of mae1Δmpc1Δ yeast expressing wild-type MPC1 on glucose medium lacking leucine; format: cell-based, Saccharomyces cerevisiae; conditions: rescue by transgenic wild-type MPC1; 500 μM UK-5099 in plates
From the text: Saccharomyces cerevisiae haploid strain BY4741 (MATa his3 leu2 met15 ura3) was used as the parental wild-type strain in the mae1Δ mpc1Δ spot tests and JRY472 (W303a MATa his3 leu2 met15 trp1 ura3) was used as the strain for all other experiments. Single deletion mutations were created in diploid strains by the standard PCR-based homologous recombination method using KanMX4 (kanamycin resistance), NatMX4 (nourseothricin resistance), or HphMX4 (hygromycin B resistance) cassettes to replace the entire gene, followed by sporulation and tetrad dissection to isolate the desired haploid knockout. Double and triple deletion mutants were created by standard crosses. Deletion strains were verified by PCR.
A plasmid library harboring MPC1 mutants was generated by PCR mutagenesis using methods previously described [Hinman et al., 1981]. mpc1Δ mpc3Δ mae1Δ triple mutant yeast cells were transformed with the MPC1 mutant library and plated onto SD-Ura-Leu supplemented 500 μM UK-5099. […] To quantify UK-5099 resistance conferred by the D118G substitution, uniform suspensions of mpc1Δ mpc3Δ mae1Δ triple mutant yeast cells were transformed with 2 μg empty vector, plasmid harboring wild-type MPC1, or plasmid harboring MPC1 D 118G, and then plated onto either SD-Ura, SD-Ura-Leu, or SD-Ura-Leu plus 500 μM UK-5099.

MPC1 D118G = assay: Growth of yeast expressing MPC1 D118G in the presence of UK-5099; format: cell-based, Saccharomyces cerevisiae; conditions: D118G substitution in MPC1; 500 μM UK-5099 in plates
Procedure: A plasmid library harboring MPC1 mutants was generated by PCR mutagenesis using methods previously described [Hinman et al., 1981]. mpc1Δ mpc3Δ mae1Δ triple mutant yeast cells were transformed with the MPC1 mutant library and plated onto SD-Ura-Leu supplemented 500 μM UK-5099. Plates were incubated at 30° C. for 72 hours and mutant plasmids were isolated from viable colonies, amplified in E. coli., and then transformed into naive mpc1Δ mpc3Δ mae1Δ triple mutant yeast cells to confirm the conferral of resistance to UK-5099. An MPC1 mutant containing a D118G substitution was recovered from this screen. To quantify UK-5099 resistance conferred by the D118G substitution, uniform suspensions of mpc1Δ mpc3Δ mae1Δ triple mutant yeast cells were transformed with 2 μg empty vector, plasmid harboring wild-type MPC1, or plasmid harboring MPC1 D 118G, and then plated onto either SD-Ura, SD-Ura-Leu, or SD-Ura-Leu plus 500 μM UK-5099.

[1] = molecular target: T3, mitochondrial pyruvate carrier (Rattus norvegicus, UniProt P38718+P63031); conditions: Halestrap 1975; cited from earlier work
T3 sequence (P63031 1-109): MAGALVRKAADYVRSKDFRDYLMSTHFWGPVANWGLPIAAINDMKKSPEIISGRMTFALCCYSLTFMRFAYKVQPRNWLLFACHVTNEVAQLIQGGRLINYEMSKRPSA
T3 sequence (P38718 1-127): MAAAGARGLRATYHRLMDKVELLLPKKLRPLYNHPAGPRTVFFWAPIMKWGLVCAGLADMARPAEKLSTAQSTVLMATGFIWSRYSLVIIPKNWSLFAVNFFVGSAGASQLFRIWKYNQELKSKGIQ

For `N#C/C(=C\c1cn(-c2ccccc2)c2ccccc12)C(=O)O` [UK-5099], the “14C-pyruvate uptake into mitochondria” value (MPC1) was “almost completely inhibited”, the “14C-pyruvate uptake into mitochondria” value (MPC1-D118G) was “efficient pyruvate uptake that is resistant to UK-5099” and the “growth on glucose medium lacking leucine” value (mae1Δmpc1Δ double mutant) was “effectively rescued by transgenic expression of wild-type MPC1 in the absence, but not the presence, of UK-5099”. The “growth in the presence of UK-5099” value (MPC1 D118G) was “conferred UK-5099 resistance” and the “inhibition of carrier activity” value [1] was “specific and potent inhibitors of carrier activity”.
